PubChem BioAssay AID1963961 (Molecular Pharmacology Branch, DTP, NCI, 2024)
One block for each molecule: values may come before it.

System: K98450-129-R-PDC multicell spheroids, viability
Assay: Anticancer human tumor K98450-129-R-PDC patient-derived colon adenocarcinoma cell line growth inhibition [PI3K]
Details: for IC50: curve of first compound; for viability, T/C: stronger effect = lower value
From the text: Combinatorial screen of targeted agents with the PI3K inhibitors inavolisib, alpelisib, duvelisib, and copanlisib in multi-cell type tumor spheroids
A high-throughput screen of multi-cell type tumor spheroids was designed to identify active combinations of targeted small molecules and PI3K pathway inhibitors. Complex spheroids include a stromal component modeled by human endothelial cells (HUVEC) and fibroblasts modeled by human mesenchymal stem cells (MSCs). The concentration ranges selected for each drug and investigational agent were based upon clinically achievable concentrations if the clinical Cmax of the agent was known.
Compounds. The drugs and investigational agents: inavolisib (NSC800729), alpelisib (NSC765974), duvelisib (NSC772469), copanlisib (NSC816437), ipatasertib (NSC767898), afuresertib (NSC778305), talazoparib (NSC767125), sapanisertib (NSC764658), selumetinib (NSC741078), tovorafenib (DAY101, NSC766906), vemurafenib (NSC761431), ravoxertinib (NSC781343), sotorasib (NSC818433), MRTX1133 (NSC 836407), abemaciclib (NSC 768073), palbociclib (NSC758247), venetoclax (NSC 766270), SY5609 (NSC837396), enzalutamide (NSC755605), and darolutamide (NSC825331), were obtained from the National Cancer Institute (NCI) Developmental Therapeutics Program Chemical Repository. The FDA-approved anticancer drug set is available from the NCI Developmental Therapeutics Program. […] The stock solutions were prepared in dimethyl sulfoxide (DMSO, Sigma-Aldrich, St. Louis, MO, cat. D2650) at 800-fold the tested concentration and stored at -70 degrees C prior to their use. All drugs and investigational agents were tested over a range starting from a high concentration at or near the clinical Cmax and decreasing in half-log increments. If the clinical Cmax for an agent had not been determined, the highest concentration tested was 10 microM.
Cell Culture. All cells were maintained in an incubator at 37 degrees C and 5% CO2 with 95% humidity. The PDC lines were cultured according to standard operating procedures established by the NCI PDMR (https://pdmr.cancer.gov/sops/default.htm). All PDCs were thawed and cultured in Matrigel-coated flasks prepared with a working solution of 1X Ham's F-12 nutrient mix, without supplementation (Invitrogen, Waltham, MA, cat. 11765054), 100 U/mL penicillin-streptomycin (Invitrogen, cat. 15140122), and 2.5% Matrigel (Corning Inc., Corning, NY, cat. 354248) for the first three passages. The 354836-022-R-J1-PDC, 475296-252-R-J1-PDC, and 997726-040-R-J2-PDC lines were cultured in 6A media, which includes advanced DMEM/F-12 (Thermo Fisher Scientific, cat. 12634028), 10 mM HEPES (Thermo Fisher Scientific, cat. 15630080), 1X GlutaMAX supplement (Thermo Fisher Scientific, cat. 35050061), 0.1 mg/mL primocin (InvivoGen, San Diego, CA, cat. ant-pm-2), 10% defined fetal bovine serum, heat inactivated (HyClone Laboratories Inc., Logan, UT, cat. SH30070.03HI), 50% L-WRN conditioned media (ATCC, cat. CRL-3276), 1.25 mM N-Acetyl-L-cysteine (Sigma-Aldrich, cat. A9165), 10 mM nicotinamide (Sigma-Aldrich, cat. N0636), 1X B-27 supplement (Thermo Fisher Scientific, cat. 17504044), 1X N-2 supplement (Thermo Fisher Scientific, cat. 17502048), and 10 microM Y-27632 dihydrochloride (Tocris Bioscience, Bristol, United Kingdom, cat. 1254). The 624824-186-R-J2-PDC line was cultured in 6C/Colon 1B media, which includes all 6A media components plus 50 ng/mL human EGF recombinant protein (Thermo Fisher Scientific, cat. PHG0311). […]

[1] = second compound 0.00316 µM, first compound 0.0316 µM
[2] = second compound 0.00316 µM, first compound 0.1 µM
[3] = second compound 0.01 µM, first compound 0.0316 µM
[4] = second compound 0.01 µM, first compound 0.1 µM
[5] = second compound 0.0316 µM, first compound 0.0316 µM
[6] = second compound 0.0316 µM, first compound 0.1 µM
[7] = second compound 0.1 µM, first compound 0.0316 µM
[8] = second compound 0.1 µM, first compound 0.1 µM
[9] = second compound 0.316 µM, first compound 0.0316 µM
[10] = second compound 0.316 µM, first compound 0.1 µM
[11] = second compound 1 µM, first compound 0.0316 µM
[12] = second compound 1 µM, first compound 0.1 µM
[13] = second compound 0.00316 µM, first compound 0.316 µM
[14] = second compound 0.00316 µM, first compound 1 µM
[15] = second compound 0.00316 µM, first compound 3.16 µM
[16] = second compound 0.00316 µM, first compound 10 µM
[17] = second compound 0.01 µM, first compound 0.316 µM
[18] = second compound 0.01 µM, first compound 1 µM
[19] = second compound 0.01 µM, first compound 3.16 µM
[20] = second compound 0.01 µM, first compound 10 µM
[21] = second compound 0.0316 µM, first compound 0.316 µM
[22] = second compound 0.0316 µM, first compound 1 µM
[23] = second compound 0.0316 µM, first compound 3.16 µM
[24] = second compound 0.0316 µM, first compound 10 µM
[25] = second compound 0.1 µM, first compound 0.316 µM
[26] = second compound 0.1 µM, first compound 1 µM
[27] = second compound 0.1 µM, first compound 3.16 µM
[28] = second compound 0.1 µM, first compound 10 µM
[29] = second compound 0.316 µM, first compound 0.316 µM
[30] = second compound 0.316 µM, first compound 1 µM
[31] = second compound 0.316 µM, first compound 3.16 µM
[32] = second compound 0.316 µM, first compound 10 µM
[33] = second compound 1 µM, first compound 0.316 µM
[34] = second compound 1 µM, first compound 1 µM
[35] = second compound 1 µM, first compound 3.16 µM
[36] = second compound 1 µM, first compound 10 µM
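Note: spheroids exposed to agents for seven days before read-out.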

- IC50 (second compound 0.00316 µM): > 0.1 µM
- IC50 (second compound 0.01 µM): > 0.1 µM
- IC50 (second compound 0.0316 µM): > 0.1 µM
- IC50 (second compound 0.1 µM): > 0.1 µM
- IC50 (second compound 0.316 µM): > 0.1 µM
- IC50 (second compound 1 µM): > 0.1 µM
SMILES: CC(C)n1nc(-c2ccc3oc(N)nc3c2)c2c(N)ncnc21 + CC(Nc1ccc2c(c1)OCCn1cc(N3C(=O)OCC3C(F)F)nc1-2)C(N)=O
- viability, T/C (second compound 0.00316 µM, first compound 0.000316 µM): 106%
- viability, T/C (second compound 0.00316 µM, first compound 0.001 µM): 93.9%
- viability, T/C (second compound 0.00316 µM, first compound 0.00316 µM): 97.1%
- viability, T/C (second compound 0.00316 µM, first compound 0.01 µM): 94.7%
- viability, T/C [1]: 90.3%
- viability, T/C [2]: 78.8%
- viability, T/C (second compound 0.01 µM, first compound 0.000316 µM): 115%
- viability, T/C (second compound 0.01 µM, first compound 0.001 µM): 100%
- viability, T/C (second compound 0.01 µM, first compound 0.00316 µM): 103%
- viability, T/C (second compound 0.01 µM, first compound 0.01 µM): 91.1%
- viability, T/C [3]: 96.1%
- viability, T/C [4]: 77.2%
- viability, T/C (second compound 0.0316 µM, first compound 0.000316 µM): 99%
- viability, T/C (second compound 0.0316 µM, first compound 0.001 µM): 98.9%
- viability, T/C (second compound 0.0316 µM, first compound 0.00316 µM): 99.4%
- viability, T/C (second compound 0.0316 µM, first compound 0.01 µM): 94.5%
- viability, T/C [5]: 96.5%
- viability, T/C [6]: 74%
- viability, T/C (second compound 0.1 µM, first compound 0.000316 µM): 100%
- viability, T/C (second compound 0.1 µM, first compound 0.001 µM): 102%
- viability, T/C (second compound 0.1 µM, first compound 0.00316 µM): 95.4%
- viability, T/C (second compound 0.1 µM, first compound 0.01 µM): 91.3%
- viability, T/C [7]: 93.1%
- viability, T/C [8]: 71.5%
- viability, T/C (second compound 0.316 µM, first compound 0.000316 µM): 93.1%
- viability, T/C (second compound 0.316 µM, first compound 0.001 µM): 93.2%
- viability, T/C (second compound 0.316 µM, first compound 0.00316 µM): 99.7%
- viability, T/C (second compound 0.316 µM, first compound 0.01 µM): 88.2%
- viability, T/C [9]: 79.1%
- viability, T/C [10]: 77.7%
- viability, T/C (second compound 1 µM, first compound 0.000316 µM): 87.2%
- viability, T/C (second compound 1 µM, first compound 0.001 µM): 89.7%
- viability, T/C (second compound 1 µM, first compound 0.00316 µM): 81.3%
- viability, T/C (second compound 1 µM, first compound 0.01 µM): 82.2%
- viability, T/C [11]: 80.9%
- viability, T/C [12]: 67.1%

- IC50 (second compound 0.00316 µM): 5.72 µM
- IC50 (second compound 0.01 µM): 5.95 µM
- IC50 (second compound 0.0316 µM): 5.96 µM
- IC50 (second compound 0.1 µM): 5.68 µM
- IC50 (second compound 0.316 µM): 5.6 µM
- IC50 (second compound 1 µM): 5.38 µM
SMILES: CC1(C)CCC(CN2CCN(c3ccc(C(=O)NS(=O)(=O)c4ccc(NCC5CCOCC5)c([N+](=O)[O-])c4)c(Oc4cnc5[nH]ccc5c4)c3)CC2)=C(c2ccc(Cl)cc2)C1 + CC(Nc1ccc2c(c1)OCCn1cc(N3C(=O)OCC3C(F)F)nc1-2)C(N)=O
- viability, T/C [1]: 105%
- viability, T/C [2]: 105%
- viability, T/C [13]: 99.9%
- viability, T/C [14]: 103%
- viability, T/C [15]: 96.5%
- viability, T/C [16]: 6.21%
- viability, T/C [3]: 111%
- viability, T/C [4]: 98.7%
- viability, T/C [17]: 109%
- viability, T/C [18]: 104%
- viability, T/C [19]: 103%
- viability, T/C [20]: 6.45%
- viability, T/C [5]: 106%
- viability, T/C [6]: 107%
- viability, T/C [21]: 106%
- viability, T/C [22]: 99.6%
- viability, T/C [23]: 99.8%
- viability, T/C [24]: 9.42%
- viability, T/C [7]: 98.2%
- viability, T/C [8]: 104%
- viability, T/C [25]: 103%
- viability, T/C [26]: 102%
- viability, T/C [27]: 95.2%
- viability, T/C [28]: 6.43%
- viability, T/C [9]: 97.9%
- viability, T/C [10]: 92.8%
- viability, T/C [29]: 101%
- viability, T/C [30]: 85.3%
- viability, T/C [31]: 96.3%
- viability, T/C [32]: 4.55%
- viability, T/C [11]: 86.6%
- viability, T/C [12]: 88.1%
- viability, T/C [33]: 89.8%
- viability, T/C [34]: 90.2%
- viability, T/C [35]: 85.2%
- viability, T/C [36]: 8.82%

- IC50 (second compound 0.00316 µM): > 10 µM
- IC50 (second compound 0.01 µM): > 10 µM
- IC50 (second compound 0.0316 µM): > 10 µM
- IC50 (second compound 0.1 µM): > 10 µM
- IC50 (second compound 0.316 µM): > 10 µM
- IC50 (second compound 1 µM): > 10 µM
SMILES: C[C@@H](NC(=O)c1ncnc(N)c1Cl)c1ncc(C(=O)Nc2cc(C(F)(F)F)c(Cl)cn2)s1 + CC(Nc1ccc2c(c1)OCCn1cc(N3C(=O)OCC3C(F)F)nc1-2)C(N)=O
- viability, T/C [1]: 111%
- viability, T/C [2]: 109%
- viability, T/C [13]: 118%
- viability, T/C [14]: 114%
- viability, T/C [15]: 118%
- viability, T/C [16]: 111%
- viability, T/C [3]: 115%
- viability, T/C [4]: 108%
- viability, T/C [17]: 116%
- viability, T/C [18]: 115%
- viability, T/C [19]: 118%
- viability, T/C [20]: 116%
- viability, T/C [5]: 105%
- viability, T/C [6]: 102%
- viability, T/C [21]: 108%
- viability, T/C [22]: 121%
- viability, T/C [23]: 122%
- viability, T/C [24]: 104%
- viability, T/C [7]: 96.7%
- viability, T/C [8]: 105%
- viability, T/C [25]: 107%
- viability, T/C [26]: 110%
- viability, T/C [27]: 125%
- viability, T/C [28]: 107%
- viability, T/C [9]: 97%
- viability, T/C [10]: 109%
- viability, T/C [29]: 113%
- viability, T/C [30]: 111%
- viability, T/C [31]: 120%
- viability, T/C [32]: 101%
- viability, T/C [11]: 86%
- viability, T/C [12]: 94.4%
- viability, T/C [33]: 102%
- viability, T/C [34]: 104%
- viability, T/C [35]: 115%
- viability, T/C [36]: 90.7%
